According to patent US20230096766A1, “AMINO ACID HAVING FUNCTIONAL GROUP CAPABLE OF INTERMOLECULAR HYDROGEN BONDING, PEPTIDE COMPOUND CONTAINING SAME AND METHOD FOR PRODUCTION THEREOF” (Chugai Seiyaku Kabushiki Kaisha, priority 2018, published 2023):
*1 amine or outer side, *2 acyl side, *3 side chain or, on linkers, in order; H or OH if unused. Where a SMILES comes first, the peptide text is derived from it. Bridges are numbered along the chain shown (N, C = ends). [ ]: non-standard residue; d: D form. The star is where a group is joined. ξ: configuration not given here. Phe(3-OMe,4-CONHMs) = COc1cc(C[C@H](N)C(=O)O)ccc1C(=O)NS(C)(=O)=O; X11 = CNC(=O)c1ccc(CCN(CC(=O)[*:2])[*:1])cc1OC; NMePhe(3-Cl) = CN[C@@H](Cc1cccc(Cl)c1)C(=O)O; Tyr(3-OMe) = COc1cc(C[C@H](N)C(=O)O)ccc1O; NMehPhe = CN[C@@H](CCc1ccccc1)C(=O)O; Ethyl(2-morpholino) = C1CN(CC*)CCO1; X6 = O=C([C@H](CCCCO)N[*:1])[*:2]; NMeF = CN[C@@H](Cc1ccccc1)C(=O)O; NMeGABA = CN(CCCC(=O)[*:2])[*:1]; NMeI = CC[C@H](C)[C@H](NC)C(=O)O; Butyl(3-Me,3-OH) = CC(C)(O)CC*; NMeL = CN[C@@H](CC(C)C)C(=O)O; Butyl(3R-OH) = C[C@@H](O)CC*; Propyl(2R-OH) = C[C@@H](O)C*; NMeV = CN[C@H](C(=O)O)C(C)C; NMeAbu = CC[C@H](NC)C(=O)O; NMeA = CN[C@@H](C)C(=O)O; Piperidide = C1CCN(*)CC1; NBuGly = CCCCNCC(=O)O; Isopentyl = CC(C)CC*; ξS = NC(CO)C(=O)O; Sar = CNCC(=O)O; tBu = CC(C)(C)*

Test: in vitro
Conditions: human

Row | SMILES | Papp (Caco-2, Caco-2 (cm/sec)) [×10⁻⁶ cm/s] | Papp (Caco-2, Caco-2) [×10⁻⁶ cm/s]
1 | CCCCN1CC(=O)N(C)[C@@H](CC(C)C)C(=O)N[C@@H](COC(C)(C)C)C(=O)N(C)[C@@H]([C@@H](C)CC)C(=O)N(C)[C@@H](CC(C)C)C(=O)N[C@H](C(=O)N2CCCCC2)CC(=O)N[C@H](C)C(=O)N(C)[C@@H](Cc2ccccc2)C(=O)N[C@@H](Cc2ccc(C(=O)NS(C)(=O)=O)c(OC)c2)C(=O)N(C)[C@@H](CC(C)C)C(=O)N[C@@H]([C@@H](C)O)C1=O [AP137] ([dA][NMeF][Phe(3-OMe,4-CONHMs)][NMeL]T[NBuGly][NMeL]S(tBu)[NMeI][NMeL]D-Piperidide; lactam N-11) | < 0.29 | –
2 | CC[C@H]1C(=O)N[C@@H](CC(C)C)C(=O)N(C)[C@@H](CC(C)C)C(=O)N(C)[C@@H](Cc2ccccc2)C(=O)N[C@@H](CCCCO)C(=O)N(C)[C@@H](CCc2ccccc2)C(=O)N(C)[C@@H](CC(C)C)C(=O)N[C@@H]([C@@H](C)O)C(=O)N(C)CC(=O)N(C)[C@@H](CC(C)C)C(=O)N[C@H](C(=O)N2CCCCC2)CC(=O)N1C [Compound B06] ([NMeAbu]L[NMeL][NMeF][X6][NMehPhe][NMeL]T[Sar][NMeL]D-Piperidide; lactam N-11) | 0.39 | –
3 | CC[C@H]1C(=O)N[C@@H](CC(C)C)C(=O)N(C)[C@@H](CC(C)C)C(=O)N(C)[C@@H](Cc2ccccc2)C(=O)N[C@@H](Cc2ccc(O)c(OC)c2)C(=O)N(C)[C@@H](CC(C)C)C(=O)N(C)[C@@H](CC(C)C)C(=O)N[C@@H]([C@@H](C)O)C(=O)N(C)CC(=O)N(C)[C@@H](CC(C)C)C(=O)N[C@H](C(=O)N2CCCCC2)CC(=O)N1C [Compound E05] ([NMeAbu]L[NMeL][NMeF][Tyr(3-OMe)][NMeL][NMeL]T[Sar][NMeL]D-Piperidide; lactam N-11) | 1.8 | –
4 | CCCCN1CC(=O)N(C)[C@@H](CC(C)C)C(=O)N[C@H](C(=O)N2CCCCC2)CC(=O)N(C)[C@@H](CC)C(=O)NC(COCCN2CCOCC2)C(=O)N(C)[C@@H](CC(C)C)C(=O)N(C)[C@@H](CC)C(=O)N[C@@H](C(C)C)C(=O)N(C)[C@@H](Cc2ccccc2)C(=O)N(C)[C@@H](CC(C)C)C(=O)N[C@@H]([C@@H](C)O)C1=O (stereo partly drawn) [pd483] ([NMeAbu][ξS](Ethyl(2-morpholino))[NMeL][NMeAbu]V[NMeF][NMeL]T[NBuGly][NMeL]D-Piperidide; lactam N-11) | – | 1.9
5 | CC(C)C[C@H]1C(=O)N[C@@H]([C@@H](C)O)C(=O)N(C)[C@@H](CC(C)C)C(=O)N(C)[C@@H](CC(C)C)C(=O)N[C@H](C(=O)N2CCCCC2)CC(=O)N(C)CCCC(=O)N(C)[C@@H](C(C)C)C(=O)N[C@@H](COCC[C@@H](C)O)C(=O)N(C)[C@@H](Cc2ccccc2)C(=O)N(C)[C@@H](Cc2cccc(Cl)c2)C(=O)N[C@@H](COC(C)(C)C)C(=O)N1C [AP110] ([NMeGABA][NMeV]S(Butyl(3R-OH))[NMeF][NMePhe(3-Cl)]S(tBu)[NMeL]T[NMeL][NMeL]D-Piperidide; lactam N-11) | 0.23 | –
6 | CC(C)CCOC[C@@H]1NC(=O)[C@H](Cc2ccccc2)N(C)C(=O)[C@H](Cc2ccccc2)N(C)C(=O)[C@H](COCCC(C)(C)O)NC(=O)[C@H](CC(C)C)N(C)C(=O)CCCN(C)C(=O)C[C@@H](C(=O)N2CCCCC2)NC(=O)[C@H](CC(C)C)N(C)C(=O)[C@H](CC(C)C)N(C)C(=O)[C@H]([C@@H](C)O)NC(=O)[C@H](C(C)C)N(C)C1=O [AP53] ([NMeGABA][NMeL]S(Butyl(3-Me,3-OH))[NMeF][NMeF]S(Isopentyl)[NMeV]T[NMeL][NMeL]D-Piperidide; lactam N-11) | 0.74 | –
7 | CC[C@H](C)[C@H]1C(=O)N[C@@H](C(C)C)C(=O)N(C)CC(=O)N(C)[C@@H](CC(C)C)C(=O)N[C@H](C(=O)N2CCCCC2)CC(=O)N(C)[C@@H](C)C(=O)N[C@@H](COC[C@@H](C)O)C(=O)N(C)[C@@H](CC(C)C)C(=O)N(C)[C@@H](Cc2ccccc2)C(=O)N[C@@H](CC(C)C)C(=O)N(C)[C@@H](Cc2ccccc2)C(=O)N1C [AP86] ([NMeA]S(Propyl(2R-OH))[NMeL][NMeF]L[NMeF][NMeI]V[Sar][NMeL]D-Piperidide; lactam N-11) | 3.7 | –
8 | CC[C@H](C)[C@@H]1NC(=O)[C@H](CC(C)C)N(C)C(=O)CCCN(C)C(=O)C[C@@H](C(=O)N2CCCCC2)NC(=O)[C@H](CC(C)C)N(C)C(=O)[C@H](C)N(C)C(=O)[C@H](Cc2c[nH]c3ccccc23)NC(=O)[C@H](CC(C)C)N(C)C(=O)[C@H](COC(C)(C)C)NC(=O)[C@H](CC(C)C)N(C)C(=O)[C@H](CC(C)C)N(C)C1=O [pd110] ([NMeGABA][NMeL]I[NMeL][NMeL]S(tBu)[NMeL]W[NMeA][NMeL]D-Piperidide; lactam N-11) | 0.29 | –
9 | CC[C@H]1C(=O)N[C@@H]([C@@H](C)O)C(=O)N(CCc2ccc(C(=O)NC)c(OC)c2)CC(=O)N(C)[C@@H](CC(C)C)C(=O)N[C@@H](COC(C)(C)C)C(=O)N(C)[C@@H](CC(C)C)C(=O)N(C)[C@@H](CC(C)C)C(=O)N[C@H](C(=O)N2CCCCC2)CC(=O)N[C@H](C)C(=O)N(C)[C@@H](Cc2ccccc2)C(=O)N[C@@H](CC(C)C)C(=O)N1C [AP216] ([dA][NMeF]L[NMeAbu]T[X11][NMeL]S(tBu)[NMeL][NMeL]D-Piperidide; lactam N-11) | 0.99 | –
